Where a SMILES comes first, the peptide text is derived from it. [ ]: non-standard residue; d: D form.
Experiments:
Format in all cases: biochemical
VQIINK = target: T1, VQIINK (Homo sapiens, UniProt P10636); test: ThT fluorescence, aggregation of VQIINK peptide; details: ThT end-point 24 h; 20 µM VQIINK, 20 µM RI‐AG03 (equimolar), 5 µM heparin, pH 7.4; alone or combined with VQIVYK
T1 construct: ^275VQIINK^280 hexapeptide (motif found in three isoforms)
Method: (§1) Fluorescence was measured (λex = 442 nm, λem = 483 nm), and data were normalized. […] The addition of inhibitor to the growth phase was controlled by adding an equivalent volume of buffer alone.
(§2) FIGURE 3 Lead peptide RI‐AG03 dose‐response and target specificity. […] (C) Concentration‐dependent inhibition of by Tau^Δ1‐250 by RI‐AG03. […] (E) Concentration‐dependent inhibition of by Tau^2N4R by RI‐AG03. […] (F) log10 scatter graph of Tau^2N4R inhibition by RI‐AG03 employing a curve fitting algorithm to calculate the IC50 at 5 µM. Experiments were conducted in triplicate and error bars were reported as standard deviation. One factor repeated measures ANOVA + Tukey post hoc statistical analysis: p > 0.05, *p ≤ 0.05, **p ≤ 0.01, ***p ≤ 0.001.

VQIVYK = target: T2, VQIVYK (Homo sapiens, UniProt P10636); test: ThT fluorescence, aggregation of VQIVYK peptide; details: ThT end-point 24 h; 20 µM VQIVYK, 20 µM RI‐AG03 (equimolar), 5 µM heparin, pH 7.4; alone or combined with VQIINK
T2 construct: ^306VQIVYK^311 hexapeptide (motif found in all six isoforms)
Method: as §1, §2

Tau^Δ1‐250 [1] = target: T3, Tau^Δ1‐250 (Homo sapiens, UniProt P10636); test: TEM of aggregated Tau^Δ1‐250
T3 construct: Tau^Δ1‐250 (an aggregate prone truncated version of full‐length Tau); made in house; host or cells: E. coli BL21(DE3)
Method: Transmission electron microscopy (TEM): Tau was aggregated in similar conditions as above. Samples (10 µL) were loaded onto Formvar/Carbon 300 mesh copper grids for 3 min. The excess sample was wicked away and then negatively stained with 10 µL of filtered 2% phosphotungstic acid, pH 2, for 2 min. Grids were examined using a JEOL JEM‐1010 transmission electron microscope and were visualized and photographed at 50,000× magnification with 80.0 kV.
(§3) FIGURE 4 Lead peptide RI‐AG03 suppresses Tau β‐sheet content and forms of off‐pathway structures. […] 20 µM RI‐AG03 was added after 0, 24, and 72 h, of Tau aggregation (hatched gray bars), or not at all (solid gray bar representing end‐point aggregation of Tau^2N4R at 9 days). Note that Tau^2N4R aggregation plateaued at ∼72 h. […] One factor repeated measures ANOVA + Tukey post hoc statistical analysis: p > 0.05, *p ≤ 0.05, **p ≤ 0.01, ***p ≤ 0.001. (C) Negative stain TEM images using a Joel JEM‐1010 after the aggregation of 20 µM Tau^Δ1‐250 for 24 h, in the absence of RI‐AG03 (left), and in the presence of 20 µM RI‐AG03 (right). (D) The area and diameter of 200 large spherical species formed in the presence of 20 µM RI‐AG03 and recorded by TEM were quantified using iTEM software. […]

Tau^Δ1‐250 [2] = target: T3, Tau^Δ1‐250; test: Circular dichroism of Tau^Δ1‐250 aggregation; details: 20 µM Tau^Δ1‐250, 20 µM RI‐AG03, aggregated 5 h; CD 180–260 nm
Method: Circular dichroism (CD): CD spectra were obtained using a Chirascan plus qCD spectrometer between 180 and 260 nm with a bandwidth of 1 nm and a path length of 2 mm.
as §3

T3 sequence (P10636 568-758, stated change not applied): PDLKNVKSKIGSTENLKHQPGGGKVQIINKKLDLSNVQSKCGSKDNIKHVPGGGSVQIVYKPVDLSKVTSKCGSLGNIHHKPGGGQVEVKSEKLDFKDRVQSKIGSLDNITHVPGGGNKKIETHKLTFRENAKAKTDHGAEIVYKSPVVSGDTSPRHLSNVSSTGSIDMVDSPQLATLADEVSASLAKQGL

CC[C@@H](C)[C@@H](NC(=O)[C@@H](CCCCNC(C)=O)NC(=O)[C@@H](Cc1ccc(O)cc1)NC(=O)[C@@H](CCCCN)NC(=O)[C@H]1CCCN1C(=O)CNC(=O)[C@@H](CCCNC(=N)N)NC(=O)[C@@H](CCCNC(=N)N)NC(=O)[C@@H](CCCNC(=N)N)NC(=O)[C@@H](CCCNC(=N)N)NC(=O)[C@@H](CCCNC(=N)N)NC(=O)[C@@H](CCCNC(=N)N)NC(=O)[C@@H](CCCNC(=N)N)NC(=O)[C@@H](CCCNC(=N)N)NC(C)=O)C(=O)N[C@H](CCC(N)=O)C(=O)N[C@@H](C(=O)NCC(=O)N[C@H](CCCNC(=N)N)C(N)=O)C(C)C [RI‐AG03] (Ac-[dR][dR][dR][dR][dR][dR][dR][dR]G[dP][dK][dY][dK](Ac)[dI][dQ][dV]G[dR]-NH2)
effect on aggregation of VQIINK peptide (VQIINK): dramatically reduced
effect on aggregation of VQIVYK peptide (VQIVYK): dramatically reduced
mean diameter of large spherical structures formed with the inhibitor (Tau^Δ1‐250 [1]; 20 µM Tau^Δ1‐250, 20 µM RI‐AG03, 24 h, TEM, 200 species quantified): ~36 nm
fibrils seen by TEM (Tau^Δ1‐250 [1]; 20 µM Tau^Δ1‐250 with heparin 24 h, equimolar (20 µM) RI‐AG03, negative stain TEM): these fibrils were not observed
CD spectral changes (random coil to secondary structure incl. β‐strands) (Tau^Δ1‐250 [2]): significantly suppressed

From paper PMC11567856, “A novel peptide‐based tau aggregation inhibitor as a potential therapeutic for Alzheimer's disease and other tauopathies” (Alzheimer's & Dementia, 2024)
